Assay results taken from US9345739B2, “Methods and compositions for the treatment of proteinuric diseases” (The General Hospital Corporation, priority 2007, dated 2016).
“Also recorded” adds a separate entry of the source.

Columns and labels:
uPAR = assay: Induction of uPAR in cultured podocytes, relative quantification; format: cell-based, mouse
cultured podocytes [1] = assay: Multiwell Boyden chamber assay, random podocyte migration on vitronectin; format: cell-based, mouse; conditions: wild type podocytes, treatment for 24 h
Protocol: Podocyte migration was analyzed using a 12-well chemotaxis chamber (Neuro Probe) according to the manufacturer's protocol. In brief, differentiated podocytes were treated with 50 μg/ml of LPS or PAN for 24 h and then harvested for the migration assay. Bottom plates were coated with vitronectin or type I collagen, while upper plates were loaded with equal number of cells (5×10^4) suspended in medium. The chamber was incubated at 37° C. for 4 h before the membrane was taken out and stained with diamidino phenylindole (DAPI). The average number of migrated cells was counted in four fields in six independent experiments.

cultured podocytes [2] = assay: Scrape wound (wound healing) assay, directed podocyte motility; format: cell-based, mouse; conditions: for directed podocyte motility into the wound track: wild type podocytes, vitronectin-coated surface, treatment for 24 h
Protocol: To study the directional movement of podocytes, a wound healing assay was performed. Briefly, podocytes were seeded on Vn or type I collagen coated cover-slips and cultured for 10 days at 37° C. before treated with LPS or PAN for 12-48 h. To create a scrape wound approximately 0.1 cm wide, the narrow end of a P1000 pipette tip was perpendicularly pushed through the monolayer. Then, cover-slips were washed twice with PBS and incubated in medium. After incubation, cells were fixed with 2% PFA and stained with DAPI for analysis. The cell migratory distance was calculated by averaging the distance from the wound edge to the maximally migrated cell in five distinct border zones.

αvβ3 integrin [3] = target: T1, αvβ3 integrin (Mus musculus, UniProt O54890+P43406); assay: Recovery of already existing LPS-induced proteinuria, urine Bradford assay; format: in vivo; conditions: B6 mice, LPS at 0 and 24 h; 25 mg/kg body weight through tail vein 48 h after first injection
T1 construct: from tissue; host or cells: living wild type (C57BL/6, 'B6') mice
T1 sequence (P43406 31-1044): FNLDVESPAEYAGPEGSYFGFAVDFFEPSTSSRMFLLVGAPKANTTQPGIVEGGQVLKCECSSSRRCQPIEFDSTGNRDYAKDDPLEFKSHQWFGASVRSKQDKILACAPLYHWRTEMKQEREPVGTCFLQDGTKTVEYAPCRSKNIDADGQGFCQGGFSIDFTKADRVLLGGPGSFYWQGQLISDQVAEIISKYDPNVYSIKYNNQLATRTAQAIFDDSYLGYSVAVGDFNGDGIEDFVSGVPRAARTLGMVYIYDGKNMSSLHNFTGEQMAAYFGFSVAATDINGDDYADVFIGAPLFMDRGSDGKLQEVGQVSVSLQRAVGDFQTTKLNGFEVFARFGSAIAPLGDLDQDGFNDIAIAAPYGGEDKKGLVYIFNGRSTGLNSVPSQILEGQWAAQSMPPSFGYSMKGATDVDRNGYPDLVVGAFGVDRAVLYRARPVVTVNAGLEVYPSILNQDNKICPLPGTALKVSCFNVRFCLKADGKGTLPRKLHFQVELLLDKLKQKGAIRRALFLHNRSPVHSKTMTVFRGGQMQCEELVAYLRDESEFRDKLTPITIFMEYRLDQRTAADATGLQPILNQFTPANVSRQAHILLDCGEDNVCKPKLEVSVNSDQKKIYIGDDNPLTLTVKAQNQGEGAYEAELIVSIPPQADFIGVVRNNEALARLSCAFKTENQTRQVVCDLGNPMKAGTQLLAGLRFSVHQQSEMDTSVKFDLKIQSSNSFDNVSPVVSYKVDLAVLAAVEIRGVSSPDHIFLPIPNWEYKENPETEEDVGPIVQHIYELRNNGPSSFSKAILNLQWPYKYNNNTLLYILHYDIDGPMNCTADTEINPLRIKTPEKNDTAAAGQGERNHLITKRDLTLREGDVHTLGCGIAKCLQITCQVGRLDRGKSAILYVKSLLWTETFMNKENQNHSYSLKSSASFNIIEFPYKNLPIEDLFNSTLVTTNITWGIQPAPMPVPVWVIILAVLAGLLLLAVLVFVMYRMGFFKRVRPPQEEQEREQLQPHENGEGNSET
T1 sequence (O54890 26-787): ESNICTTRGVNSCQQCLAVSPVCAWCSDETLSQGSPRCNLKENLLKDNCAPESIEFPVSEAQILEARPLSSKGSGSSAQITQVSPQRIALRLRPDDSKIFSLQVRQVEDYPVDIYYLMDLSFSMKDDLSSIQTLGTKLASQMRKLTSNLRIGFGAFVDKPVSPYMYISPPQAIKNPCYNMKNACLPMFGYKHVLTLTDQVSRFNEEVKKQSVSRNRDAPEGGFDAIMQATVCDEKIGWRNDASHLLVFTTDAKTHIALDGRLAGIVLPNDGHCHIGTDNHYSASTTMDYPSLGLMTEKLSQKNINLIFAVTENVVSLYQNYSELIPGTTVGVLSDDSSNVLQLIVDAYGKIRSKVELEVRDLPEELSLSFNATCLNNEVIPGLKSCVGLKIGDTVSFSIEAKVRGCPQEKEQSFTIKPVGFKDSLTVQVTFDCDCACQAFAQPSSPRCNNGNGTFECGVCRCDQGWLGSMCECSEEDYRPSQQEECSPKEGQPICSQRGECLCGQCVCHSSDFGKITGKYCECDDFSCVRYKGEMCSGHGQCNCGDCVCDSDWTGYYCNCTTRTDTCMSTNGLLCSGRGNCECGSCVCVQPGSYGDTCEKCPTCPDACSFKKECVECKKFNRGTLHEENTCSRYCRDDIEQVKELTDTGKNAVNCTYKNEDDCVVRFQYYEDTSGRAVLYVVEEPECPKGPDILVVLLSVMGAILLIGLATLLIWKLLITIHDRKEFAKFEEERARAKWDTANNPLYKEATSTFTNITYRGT
Protocol: B6 mice are injected twice (0, 24 h) with LPS to induce and maintain proteinuria. 48 h after first injection, S247 (n=6) is administered (25 mg/kg body weight) through tail vein. Control (n=5) received the same amount of PBS. 0, 48 h, 66 h urine was collected for Braford assay.

β3 integrin = assay: Active β3 integrin (AP5 staining) in LPS treated cultured podocytes; format: cell-based, mouse; conditions: disruption of lipid rafts
Text: Cultured podocytes were immunolabeled as described previously^8.

[4] = target: β3 integrin on cultured mouse podocytes (mouse) (UniProt O54890); assay: flow cytometry, LPS treated mouse podocytes, 5 µg/ml AP5, 0.4 mM Ca2+
[5] = target: β3 integrin on cultured mouse podocytes (mouse) (UniProt O54890); assay: flow cytometry, LPS treated mouse podocytes, 5 µg/ml AP5, 1.0 mM Ca2+
[6] = target: β3 integrin on cultured mouse podocytes (mouse) (UniProt O54890); assay: flow cytometry, LPS treated mouse podocytes, 5 µg/ml AP5, 0.1 mM Ca2+
[7] = target: β3 integrin on cultured mouse podocytes (mouse) (UniProt O54890); assay: flow cytometry, LPS treated mouse podocytes, 5 µg/ml AP5, 1 mM EDTA
[8] = target: β3 integrin on cultured mouse podocytes (mouse) (UniProt O54890); assay: flow cytometry, LPS treated mouse podocytes, 5 µg/ml AP5, 2.0 mM Ca2+
Rac1 = assay: GTPase activity assay in isolated glomeruli (Rac1); format: in vivo, mouse; conditions: wild type mice co-injected with LPS and RGDfV (every 8 hours for 24 hours)
Protocol: (§1) Rho family small GTPase activity in glomerular lysates was measured by Rho/Rac/Cdc42 activation assay kit (Cell Biolabs, INC.) following the manufacturer's protocol. Isolated glomeruli from wild type and uPAR^−/− mice, some of them treated with LPS (t=0) and with RGDfV (SEQ ID NO: 1) every 8 hours for 24 hours were obtained by standard sieve technique^25. 2 mg of glomerular lysate were used to prepare for positive or negative control by incubating with 10 μl of GTPγS or GDP respectively. For small GTPase pull-down assay, the same amount (2 mg) of glomerulus lysates from different treatments were incubated with 40 μl of Rhotekin RBD or PAK PBD agarose bead slurry for 1 h at 4° C. After washing 3 times with 1× assay buffer, beads were harvested and resuspended in LDS sample buffer. Samples were heated for 10 min at 70° C. before SDS-PAGE. After electrophoresis and protein transfer, the membranes were blocked with 5% milk, and incubated with anti-Rho, anti-Rac, and anti-Cdc42 antibodies for 1 h, followed by second antibody incubation and detection with ECL (Pierce). For loading control, 100 μg of glomerular lysates from different treatments were applied and immunoblotted with the same anti-Rho, anti-Cdc42 and anti-Rac antibodies as used above.

cdc42 = assay: GTPase activity assay in isolated glomeruli (cdc42); format: in vivo, mouse; conditions: wild type mice co-injected with LPS and RGDfV (every 8 hours for 24 hours)
Protocol: as §1

[9] = test system: wild type and uPAR−/− mice; assay: LPS mouse model of proteinuria in wild type and uPAR−/− mice, urine Bradford assay; format: in vivo; set-up: unit not given beside the values; conditions: LPS injection
Text: All animal studies were approved by the Subcommittee on Research Animal Care of the Massachusetts General Hospital. uPAR^−/− mice and uPA^−/− mice on a mixed background of 75% C57BL/6 and 25% 129 Swiss were obtained from University of Leuven, Belgium; Vn^−/− mice (C57BL/6) were obtained from Dr. David Ginsburg, University of Michigan; β3 integrin^−/− mice (C57BL/6) were obtained from Dr. Raghuram Kalluri, Boston. C57BL/6 and 129 Swiss mice were purchased from Jackson Laboratory (Bar Harbor). The LPS mouse model was utilized as previously described^9. The induction of B7-1 was used as a control for the effectiveness of LPS. Rat PAN nephrosis model was set up by a single intraperitoneal injection of puromycin (15 mg/100 g of body weight, Sigma-Aldrich) into Sprague-Dawley rats as described before^27. NZB/W F1 mice were purchased from the Jackson Laboratory and analyzed after 20 weeks when proteinuria and Lupus glomerulonephritis were present. As diabetic nephropathy rat model, we used Sprague Dawley rats treated with Streptozotocin. Hyperglycaemic state was induced by an intraperitoneal Streptozotocin injection (50-70 mg/kg body weight, in citrate buffer 10 mmol/L, pH 4.5). The hyperglycaemic state developed within 48 h and was maintained during the lifetime of the animals. No insulin administration was required. Glycosuria was evaluated with test strips of the Uriscan TM (YD Diagnostics, VWR, Montréal, QC, Canada) and glycaemia with the AccuSoft Monitoring System (Roche Diagnostics, Laval, QC, Canada). At the end of the study, glycaemia values were 4.3±0.53 and 8.5±0.7 mmol/L for 3 months-old and 12 months-old normoglycaemic animals, respectively, and 21.2±0.9 and 33.9±4.0 mmol/L for 3 months-old and 12 months-old diabetic animals, respectively.
uPAR-cDNA plasmids were introduced into uPAR^−/− mouse using the TransIT in vivo gene delivery system (Mims) as described previously^32,8. The following cDNAs and vector constructs were used for gene delivery: uPAR; mutated uPAR D262A^38 (kind gift from Y Wei and H A Chapman, University of California, San Francisco); β3 integrin and the constitutively active form of β3 integrin, D616-690 (β3Δ616-690)^48; Podocin promoter vector p2.5^33 (a kind gift from Dr. L B Holzman, University of Michigan) for Pod-uPAR; ICAM-2 promoter vector^34 for ICAM-2-uPAR. Tissues were analyzed for expression as described previously^8.

αvβ3 integrin [10] = target: T1, αvβ3 integrin; format: in vivo; conditions: mice, LPS only (200 μg intraperitoneally), urine 24 h after LPS
Protocol: Immediately after the first injection, 200 μg of LPS was injected intraperitoneally into each mouse to induce proteinuria. 24 h after LPS injection, urine was collected for Braford assay.

CN(C)c1ncnc2c1ncn2[C@@H]1O[C@H](CO)[C@@H](N)[C@H]1O [PAN, puromycin aminonucleoside]
Relative quantification of uPAR induction (uPAR): 0.61±0.10
podocyte migration (migrated podocytes) (cultured podocytes [1]): 67±4.9
directed podocyte motility into the wound track (cultured podocytes [2]): 79.31±3.72

O=C(O)C[C@H](NC(=O)CNC(=O)c1cncc(NC2=NCC(O)CN2)c1)c1cc(Cl)cc(Br)c1O (stereo partly drawn) [S247]
already existing proteinuria; urinary protein at timepoint 66 h (αvβ3 integrin [3]): Reduction of urinary protein

Methyl-β-cyclodextrin
activation of β3 integrin in response to LPS (AP5 staining) (β3 integrin): abrogated

anti-active β3 integrin antibody AP5 (GTI)
Fluorescent intensity units (fluorescent intensity units) [4]: 1640
Fluorescent intensity units (fluorescent intensity units) [5]: 535
Fluorescent intensity units (fluorescent intensity units) [6]: 3060
Fluorescent intensity units (fluorescent intensity units) [7]: 3020
Fluorescent intensity units (fluorescent intensity units) [8]: 312

cyclo-[Arg-Gly-Asp-D-Phe-Val] [cyclo-RGDfV]
induction of active Rac1 in glomeruli (Rac1): inhibited
induction of active cdc42 in glomeruli (cdc42): inhibited

lipopolysaccharide [LPS]
Relative quantification of uPAR induction (uPAR): 0.49±0.06
podocyte migration (migrated podocytes) (cultured podocytes [1]): 72±5.5
directed podocyte motility into the wound track (cultured podocytes [2]): 85.34±4.1
proteinuria (urine Bradford assay) ([9]; uPAR−/− mice reconstituted with uPAR-cDNA): 0.92±0.46
proteinuria (urine Bradford assay) ([9]; uPAR−/− mice which received control plasmids): 0.26±0.15
proteinuria (urine Bradford assay) ([9]; uPAR−/− mice): 0.32±0.14
proteinuria (urine Bradford assay) ([9]; wild type mice): 0.82±0.32
proteinuria (urine Bradford assay) (αvβ3 integrin [10]): 0.924±0.1055

urokinase
podocyte directional migration / motility (cultured podocytes [2]; cultured podocytes, addition of external urokinase): did not alter; also recorded: did not modify
